Converted amounts (≈) assume the structure as drawn. Read-outs that look alike come from different tables or passages of the source.
System: Neisseria gonorrhoeae strains
Type: cell-based
Excerpt: Untreated controls and blank wells were included.

C[C@H]1COc2c(N3CC[C@@H](Nc4ncccn4)C3)c(F)cc3c(=O)c(C(=O)O)cn1c23 [KSN-82-L22]
MIC (strain 2007NG046, resistance PEN-R CFM-R CPD-R CIP-R): 4 µg/mL (≈ 9.4 µM) | MIC (strain 2008NG057, resistance PEN-R CFM-R CPD-R CIP-R): 2 µg/mL (≈ 4.7 µM) | MIC (strain 2008NG097, resistance PEN-R CFM-R CPD-R CIP-R): 2 µg/mL (≈ 4.7 µM) | MIC (strain 2009NG514, resistance PEN-R CPD-R CIP-R): 2 µg/mL (≈ 4.7 µM) | MIC (strain 2010NG122, resistance PEN-R CFM-R CIP-R): 2 µg/mL (≈ 4.7 µM) | MIC (strain ATCC 49226, resistance PEN-I TET-I): ≤0.03125 µg/mL | MIC (strain ATCC 700825, resistance —): ≤0.03125 µg/mL | MIC (strain BAA-1833, resistance PEN-I TET-I): ≤0.03125 µg/mL | MIC (strain BAA-1838, resistance —): ≤0.03125 µg/mL | MIC (strain CCUG 57595, resistance —): ≤0.03125 µg/mL | MIC (strain CCUG 57596, resistance CIP-I PEN-I TET-R): 0.125 µg/mL (≈ 0.294 µM) | MIC (strain CCUG 57597, resistance FEP-NS FOX-I CAZ-NS CIP-R OFX-R PEN-R TET-R): 2 µg/mL (≈ 4.7 µM) | MIC (strain CCUG 57598, resistance FOX-R CAZ-NS CRO-NS CIP-R OFX-R PEN-R TET-R): 2 µg/mL (≈ 4.7 µM) | MIC (strain CCUG 57599, resistance CIP-R OFX-R PEN-R TET-R): 0.5 µg/mL (≈ 1.18 µM) | MIC (strain CCUG 57600, resistance CIP-R OFX-R PEN-R TET-R): 1 µg/mL (≈ 2.35 µM) | MIC (strain CCUG 57601, resistance PEN-R TET-R): ≤0.03125 µg/mL | MIC (strain CCUG 57602, resistance PEN-I TET-I): 0.0625 µg/mL (≈ 0.147 µM) | MIC (strain FDA-CDC AR-BANK#0165, resistance CIP-R PEN-I TET-R): 2 µg/mL (≈ 4.7 µM) | MIC (strain FDA-CDC AR-BANK#0166, resistance CIP-R PEN-I TET-R): 2 µg/mL (≈ 4.7 µM) | MIC (strain FDA-CDC AR-BANK#0167, resistance CIP-S PEN-S TET-I): ≤0.03125 µg/mL | MIC (strain FDA-CDC AR-BANK#0168, resistance CIP-R PEN-I TET-R): 1 µg/mL (≈ 2.35 µM) | MIC (strain FDA-CDC AR-BANK#0169, resistance CIP-R PEN-I TET-R): 2 µg/mL (≈ 4.7 µM) | MIC (strain FDA-CDC AR-BANK#0170, resistance CIP-R PEN-I TET-R): 2 µg/mL (≈ 4.7 µM) | MIC (strain FDA-CDC AR-BANK#0171, resistance CIP-R PEN-I TET-R): 1 µg/mL (≈ 2.35 µM) | MIC (strain FDA-CDC AR-BANK#0172, resistance CIP-R PEN-R TET-R): 1 µg/mL (≈ 2.35 µM) | MIC (strain FDA-CDC AR-BANK#0173, resistance CIP-R PEN-R TET-R): 2 µg/mL (≈ 4.7 µM) | MIC (strain FDA-CDC AR-BANK#0174, resistance CIP-R PEN-R TET-R): 2 µg/mL (≈ 4.7 µM) | MIC (strain FDA-CDC AR-BANK#0175, resistance CIP-S PEN-I TET-I): ≤0.03125 µg/mL | MIC (strain FDA-CDC AR-BANK#0176, resistance CIP-R PEN-R TET-R): 2 µg/mL (≈ 4.7 µM) | MIC (strain FDA-CDC AR-BANK#0177, resistance CIP-S PEN-I TET-R): ≤0.03125 µg/mL | MIC (strain FDA-CDC AR-BANK#0178, resistance CIP-R PEN-R TET-R): 2 µg/mL (≈ 4.7 µM) | MIC (strain FDA-CDC AR-BANK#0179, resistance CIP-S PEN-S TET-I): ≤0.03125 µg/mL | MIC (strain FDA-CDC AR-BANK#0180, resistance CIP-R PEN-I TET-R): 2 µg/mL (≈ 4.7 µM) | MIC (strain FDA-CDC AR-BANK#0181, resistance CIP-S PEN-I TET-R): ≤0.03125 µg/mL | MIC (strain FDA-CDC AR-BANK#0182, resistance CIP-R PEN-I TET-R): 2 µg/mL (≈ 4.7 µM) | MIC (strain FDA-CDC AR-BANK#0183, resistance CIP-R PEN-R TET-R): 2 µg/mL (≈ 4.7 µM) | MIC (strain FDA-CDC AR-BANK#0184, resistance CIP-R PEN-R TET-R): 2 µg/mL (≈ 4.7 µM) | MIC (strain FDA-CDC AR-BANK#0185, resistance CIP-R PEN-I TET-R): 2 µg/mL (≈ 4.7 µM) | MIC (strain FDA-CDC AR-BANK#0186, resistance CIP-R PEN-R TET-R): 1 µg/mL (≈ 2.35 µM) | MIC (strain FDA-CDC AR-BANK#0187, resistance CIP-R PEN-I TET-R): 2 µg/mL (≈ 4.7 µM) | MIC (strain FDA-CDC AR-BANK#0188, resistance CIP-R PEN-I TET-R): 1 µg/mL (≈ 2.35 µM) | MIC (strain FDA-CDC AR-BANK#0189, resistance CIP-R PEN-R TET-R): 2 µg/mL (≈ 4.7 µM) | MIC (strain FDA-CDC AR-BANK#0190, resistance CIP-R PEN-R TET-R): 2 µg/mL (≈ 4.7 µM) | MIC (strain FDA-CDC AR-BANK#0191, resistance CIP-R PEN-R TET-R): 2 µg/mL (≈ 4.7 µM) | MIC (strain FDA-CDC AR-BANK#0192, resistance CIP-R PEN-R TET-R): 2 µg/mL (≈ 4.7 µM) | MIC (strain FDA-CDC AR-BANK#0193, resistance CIP-S PEN-R TET-R): ≤0.03125 µg/mL | MIC (strain FDA-CDC AR-BANK#0194, resistance CRO-NS CIP-S PEN-I TET-R): ≤0.03125 µg/mL | MIC (strain FDA-CDC AR-BANK#0195, resistance CIP-R PEN-I TET-R): 2 µg/mL (≈ 4.7 µM)

— patent publication US20210261570A1, “ANTIBIOTIC RESISTANCE BREAKERS” (KING'S COLLEGE LONDON, priority 2017, published 2021)
